From US8614206B2 (Genentech, Inc., priority 2011, dated 2013)
pEC50, pIC50, pKi: −log10 of the molar value. Read-outs that look alike come from different tables or passages of the source.

Experiments:
BaF3 PIM1 cells = experiment: cells; details: Mus musculus
Procedure: (§1) BaF3 parental line was obtained from the DSMZ repository. BaF3 lines transfected with PIM 1 or PIM2 were generated. Mouse IL-3 was purchased from R&D Systems. G418 was purchased from Clontech. Media for BaF3 parental line contained RPMI, 10% FBS, 2 mM L-Glutamine, 2 ng/mL mIL-3. Media for BaF3 PIM1 & 2 lines contained RPMI, 10% FBS, 2 mM L-Glutamine, 250 μg/mL.
(§2) BaF3, a murine interleukin-3 dependent pro-B cell line, parental cells, BaF3 PIM1 cells, BaF3 PIM2 cells, and MM1.S (multiple myeloma) cells were seeded at 2 k/well, 5 k/well, 5 k/well, and 10 k/well respectively, in a 384-well plate, at 45 μL/well. Test compound was added at 5 μL/well. BaF3 cells (parental and transfected) were incubated overnight, while MM1.S cells were incubated for 72 hours at 37° C., 5% CO2. CELL TITER GLO® Reagent (Promega) was added at 50 μL/well, the plates were incubated for 30 minutes, and their luminescence read on an HT Analyst. IC50/EC50 values for the test compound were calculated.

BaF3 parental cells = experiment: In vitro cell proliferation, BaF3 parental line + IL3 (CellTiter-Glo); assay type: cell-based, murine
Procedure: as §1, §2

PIM1 = PIM1 (Homo sapiens (Human), UniProt P11309); experiment: Pim kinase inhibition, PIM1 LC3K (Example 901); assay type: biochemical
Sequence of PIM1 (P11309 whole entry): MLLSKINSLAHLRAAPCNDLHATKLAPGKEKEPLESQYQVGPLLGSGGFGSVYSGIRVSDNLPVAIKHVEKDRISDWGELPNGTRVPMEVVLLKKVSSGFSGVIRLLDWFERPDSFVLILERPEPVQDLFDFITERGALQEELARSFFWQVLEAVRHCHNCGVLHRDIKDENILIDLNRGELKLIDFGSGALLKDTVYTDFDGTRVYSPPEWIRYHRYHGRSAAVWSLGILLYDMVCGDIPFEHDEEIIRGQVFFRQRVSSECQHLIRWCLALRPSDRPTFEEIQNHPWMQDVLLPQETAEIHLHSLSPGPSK
Source text: Determination of the Pim kinase activity of a Formula I compound is possible by a number of direct and indirect detection methods.

[1] = test system: MM1.S (multiple myeloma) cells; experiment: In vitro cell proliferation, MM1.S multiple myeloma cells (CellTiter-Glo, ATP); assay type: cell-based; details: read-out: Prolif MM1S ATP (EC50)
Outline: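 BaF3 parental cells (medium with 2 ng/mL mIL-3) seeded at 2 k/well and MM1.S at 10 k/well, then exposed to test compound at 37° C, 5% CO2: BaF3 overnight, MM1.S for 72 hours. Viability read by CellTiter-Glo; IC50/EC50 values calculated.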

[2] = BaF3, read-out: Prolif BaF3_PIM1 (IC50), BaF3 PIM1 cells, incubated overnight
[3] = Mus musculus, BaF3, BaF3 parental cells with IL-3, incubated overnight, read-out: Prolif BaF3 + IL3 (IC50)
[4] = BaF3 parental cells with IL-3, incubated overnight, read-out: Prolif BaF3 + IL3 (IC50)

pEC50 ([1]; Homo sapiens, MM1.S, 72 h) | SMILES | pIC50 (BaF3 parental cells; [3]) | also measured
 | Cn1ncc(NC(=O)c2nc(-c3ccncc3F)sc2N)c1N1CCC(N)CC(F)(F)C1 (racemic) [Example 426, 5-amino-N-[5-(5-amino-3,3-difluoro-azepan-1-yl)-1-methyl-pyrazol-4-yl]-2-(3-fluoro-4-pyridyl)thiazole-4-carboxamide] | 4.61 | pIC50 (BaF3 PIM1 cells; [2]): 7.60; pKi (PIM1): 10.47
 | Cn1ncc(NC(=O)c2nc(-c3ccccc3F)sc2N)c1N1CCCC(C)(N)CC1 (single isomer, unassigned) [Example 434, 5-amino-N-[5-(4-amino-4-methyl-azepan-1-yl)-1-methyl-pyrazol-4-yl]-2-(2-fluorophenyl)thiazole-4-carboxamide] | 4.81 | pIC50 (BaF3 PIM1 cells; [2]): 6.00; pKi (PIM1): 10.03
 | Nc1sc(-c2c(F)cccc2F)nc1C(=O)Nc1cnn(CC(F)F)c1N1CCCC[C@H](N)C1 [Example 103, (S)-5-amino-N-(5-(3-aminoazepan-1-yl)-1-(2,2-difluoroethyl)-1H-pyrazol-4-yl)-2-(2,6-difluorophenyl)thiazole-4-carboxamide] |  | pIC50 (BaF3 PIM1 cells; BaF3, read-out: Prolif BaF3 PIM1 (IC50), BaF3 PIM1 cells, incubated overnight): 5.38; pIC50 (BaF3 parental cells; Mus musculus, BaF3, BaF3 parental cells with IL-3, incubated overnight, read-out: Prolif BaF3 IL3 (IC50)): 5.09; pKi (PIM1): 10.08
 | COC1CC(N)CCN(c2c(NC(=O)c3nc(-c4c(F)cccc4F)sc3N)cnn2C)C1 (centres unmarked) [Example 321, 5-amino-N-[5-(5-amino-3-methoxy-azepan-1-yl)-1-methyl-pyrazol-4-yl]-2-(2,6-difluorophenyl)thiazole-4-carboxamide] |  | pEC50 ([1]; 72 hours): 8.07; pIC50 (BaF3 parental cells; [4]): < 4.60
5.31 | Cn1ncc(NC(=O)c2nc(-c3c(F)cccc3F)sc2N)c1N1CCCC2(CCCN2)CC1 (centres unmarked) [Example 351, 5-amino-N-[5-(1,9-diazaspiro[4.6]undecan-9-yl)-1-methyl-pyrazol-4-yl]-2-(2,6-difluorophenyl)thiazole-4-carboxamide] | 5.25 | 
6.77 | Cn1ncc(NC(=O)c2nc(-c3c(F)cccc3F)sc2N)c1N1CC2CNCC(C1)O2 [Example 354, 5-amino-2-(2,6-difluorophenyl)-N-[1-methyl-5-(9-oxa-3,7-diazabicyclo[3.3.1]nonan-3-yl)pyrazol-4-yl]thiazole-4-carboxamide] | 4.84 | 
 | CNC1CCN(c2c(NC(=O)c3nc(-c4c(F)cccc4F)sc3N)cnn2C)CC(F)(F)C1 (centres unmarked) [Example 408, 5-amino-N-[5-[3,3-difluoro-5-(methylamino)azepan-1-yl]-1-methyl-pyrazol-4-yl]-2-(2,6-difluorophenyl)thiazole-4-carboxamide] | 4.78 | pEC50 ([1]; 72 hours): 5.62
 | CNC1CCN(c2c(NC(=O)c3nc(-c4c(F)cccc4F)sc3N)cnn2C)CC(F)(F)C1 (centres unmarked) [Example 409, 5-amino-N-[5-[3,3-difluoro-5-(methylamino)azepan-1-yl]-1-methyl-pyrazol-4-yl]-2-(2,6-difluorophenyl)thiazole-4-carboxamide] |  | pEC50 ([1]; 72 hours): 6.04; pIC50 (BaF3 parental cells; [4]): 4.97
6.16 | CO[C@H]1CC=C(c2c(NC(=O)c3nc(-c4c(F)cccc4F)sc3N)cnn2C)CC[C@@H]1N [Example 410, 5-amino-N-(5-((4S,5S)-5-amino-4-methoxycyclohept-1-enyl)-1-methyl-1H-pyrazol-4-yl)-2-(2,6-difluorophenyl)thiazole-4-carboxamide] | 5.04 | 
5.19 | Cn1ncc(NC(=O)c2nc(-c3c(F)cccc3F)sc2N)c1N1CC[C@H](O)[C@@](C)(N)CC1 [Example 424, 5-amino-N-(5-((4S,5S)-4-amino-5-hydroxy-4-methylazepan-1-yl)-1-methyl-1H-pyrazol-4-yl)-2-(2,6-difluorophenyl)thiazole-4-carboxamide] | < 4.60 | 
5.74 | Cn1ncc(NC(=O)c2nc(-c3c(F)cccc3F)sc2N)c1N1CCCC(C)(N)CC1 (centres unmarked) [Example 435, 5-amino-N-[5-(4-amino-4-methyl-azepan-1-yl)-1-methyl-pyrazol-4-yl]-2-(2,6-difluorophenyl)thiazole-4-carboxamide] | 5.01 | 
5.38 | C=C1C[C@@H](N)CCN(c2c(NC(=O)c3nc(-c4c(F)cccc4F)sc3N)cnn2C)C1 [Example 449, 5-amino-N-[5-[(5R)-5-amino-3-methylene-azepan-1-yl]-1-methyl-pyrazol-4-yl]-2-(2,6-difluorophenyl)thiazole-4-carboxamide] | 5.07 | 
6.91 | [2H]C([2H])([2H])n1ncc(NC(=O)c2nc(-c3c(F)cccc3F)sc2N)c1N1CC[C@@H](N)[C@H](F)CC1 [Example 451, 5-amino-N-[5-[(4R,5R)-4-amino-5-fluoro-azepan-1-yl]-1-(trideuteriomethyl)pyrazol-4-yl]-2-(2,6-difluorophenyl)thiazole-4-carboxamide] | 5.03 | 
5.49 | CC1CC(N)CCN(c2c(NC(=O)c3nc(-c4c(F)cccc4F)sc3N)cnn2C)C1 (centres unmarked) [Example 453, 5-amino-N-[5-(5-amino-3-methyl-azepan-1-yl)-1-methyl-pyrazol-4-yl]-2-(2,6-difluorophenyl)thiazole-4-carboxamide] | 4.85 | 
5.40 | Cn1ncc(NC(=O)c2nc(-c3c(F)cccc3F)sc2N)c1N1CC[C@@H](O)[C@@H](O)CC1 [Example 457, 5-amino-2-(2,6-difluorophenyl)-N-(5-((4R,5S)-4,5-dihydroxyazepan-1-yl)-1-methyl-1H-pyrazol-4-yl)thiazole-4-carboxamide] | < 4.60 | 
4.86 | Cn1ncc(NC(=O)c2nc(-c3c(F)cccc3F)sc2N)c1N1CCC2(CC1)CNCCO2 [Example 484, 5-amino-2-(2,6-difluorophenyl)-N-[1-methyl-5-(1-oxa-4,9-diazaspiro[5.5]undecan-9-yl)pyrazol-4-yl]thiazole-4-carboxamide] | 4.84 | 
6.38 | COC1(C)CCN(c2c(NC(=O)c3nc(-c4c(F)cccc4F)sc3N)cnn2C)CCC1N (centres unmarked) [Example 485, 5-amino-N-[5-(5-amino-4-methoxy-4-methyl-azepan-1-yl)-1-methyl-pyrazol-4-yl]-2-(2,6-difluorophenyl)thiazole-4-carboxamide] | 4.94 | 
5.06 | Cn1ncc(NC(=O)c2nc(-c3c(F)cccc3F)sc2N)c1N1CC[C@@H](O)[C@H](O)CC1 [Example 490, 5-amino-2-(2,6-difluorophenyl)-N-(5-((4R,5R)-4,5-dihydroxyazepan-1-yl)-1-methyl-1H-pyrazol-4-yl)thiazole-4-carboxamide] | < 4.60 | 
7.13 | [2H]C([2H])([2H])OC1CCN(c2c(NC(=O)c3nc(-c4c(F)cccc4F)sc3N)cnn2C)CCC1N (centres unmarked) [Example 492, 5-amino-N-[5-[4-amino-5-(trideuteriomethoxy)azepan-1-yl]-1-methyl-pyrazol-4-yl]-2-(2,6-difluorophenyl)thiazole-4-carboxamide] | 4.69 | 
6.05 | Cn1ncc(NC(=O)c2nc(-c3c(F)cccc3F)sc2N)c1N1CCC(C)(N)CC(F)(F)C1 (centres unmarked) [Example 495, 5-amino-N-[5-(5-amino-3,3-difluoro-5-methyl-azepan-1-yl)-1-methyl-pyrazol-4-yl]-2-(2,6-difluorophenyl)thiazole-4-carboxamide] | 5.27 | 
4.71 | CC[C@H]1CN(c2c(NC(=O)c3nc(-c4c(F)cccc4F)sc3N)cnn2C)CC[C@@]1(CN)OC [Example 496, 5-amino-N-(5-((3S,4R)-4-(aminomethyl)-3-ethyl-4-methoxypiperidin-1-yl)-1-methyl-1H-pyrazol-4-yl)-2-(2,6-difluorophenyl)thiazole-4-carboxamide] | 4.94 | 
4.98 | COC1CCC(c2c(NC(=O)c3nc(-c4ccccc4F)sc3N)cnn2C)CCC1N (centres unmarked) [Example 504] | 4.82 | 
 | COC1CCC(c2c(NC(=O)c3nc(-c4ccccc4F)sc3N)cnn2C)CCC1N (centres unmarked) [Example 506] |  | pEC50 ([1]; 72 hours): 4.93; pIC50 (BaF3 parental cells; [4]): 4.77
5.52 | Cn1ncc(NC(=O)c2nc(-c3c(F)cccc3F)sc2N)c1N1CCCC2(CNC2)C1 [Example 508, 5-amino-N-[5-(2,6-diazaspiro[3.5]nonan-6-yl)-1-methyl-pyrazol-4-yl]-2-(2,6-difluorophenyl)thiazole-4-carboxamide] | 4.60 | 
5.14 | Cn1ncc(NC(=O)c2nc(-c3c(F)cccc3F)sc2N)c1N1CCC(N)C(CO)CC1 (centres unmarked) [Example 513, 5-amino-N-[5-[4-amino-5-(hydroxymethyl)azepan-1-yl]-1-methyl-pyrazol-4-yl]-2-(2,6-difluorophenyl)thiazole-4-carboxamide] | < 4.60 | 
 | CCOC1CCN(c2c(NC(=O)c3nc(-c4c(F)cccc4F)sc3N)cnn2C)CCC1N (centres unmarked) [Example 514, 5-amino-N-[5-(4-amino-5-ethoxy-azepan-1-yl)-1-methyl-pyrazol-4-yl]-2-(2,6-difluorophenyl)thiazole-4-carboxamide] | 4.81 | pEC50 ([1]; 72 hours): 5.51
 | CCOC1CCN(c2c(NC(=O)c3nc(-c4c(F)cccc4F)sc3N)cnn2C)CCC1N (centres unmarked) [Example 515, 5-amino-N-[5-(4-amino-5-ethoxy-azepan-1-yl)-1-methyl-pyrazol-4-yl]-2-(2,6-difluorophenyl)thiazole-4-carboxamide] |  | pEC50 ([1]; 72 hours): 7.13; pIC50 (BaF3 parental cells; [4]): 4.83
5.00 | CO[C@@H]1CCN(c2c(NC(=O)c3nc(-c4c(F)cccc4F)sc3N)cnn2C)CC2(CC2)[C@@H]1N [Example 517, 5-amino-N-(5-((8R,9S)-9-amino-8-methoxy-5-azaspiro[2.6]nonan-5-yl)-1-methyl-1H-pyrazol-4-yl)-2-(2,6-difluorophenyl)thiazole-4-carboxamide] | 4.92 | 
